Measurements taken from patent US20070224297A1, “Method for increasing content of physiologically active substance in ginseng” (priority 2006, published 2007).

Test: DPPH antioxidant (radical scavenging) test
Details: 1 mM; absorbance relative to control, 517 nm, 30 minutes
Protocol: In order to measure the antioxidant effect of the ginseng extract prepared by the method of the present invention, a DPPH (1,1-diphenyl-2-picrylhydrazyl) method was used. DPPH is a color-developed radical, and can be used to directly confirm the radical removing ability of the same. […] An absorbance was measured at 517 nm to determine the amount of the remaining DPPH. The blank of this test is distilled water or a solvent, and a control is an experimental group composed only of DPPH and distilled water without the sample. The antioxidant ability (Radical Scavenging activity: RSA) was determined by the following equation 1, compared with the absorbances of the controls, and the lowered ratios are shown in Table 2. RSA (%)=[Absorbance of Hydroxylate/Absorbance of Control]×100 [Equation 1]

Structure (SMILES): O=C1O[C@H]([C@@H](O)CO)C(O)=C1O [Vitamin C]
- RSA (%): 35%
